Results: publication PMC5353780, “A novel benzo-heterocyclic amine derivative N30 inhibits influenza virus replication by depression of Inosine-5’-Monophospate Dehydrogenase activity” (Virology Journal, 2017)
Structures can show the parent of a compound that is named as a salt. Where two headings read alike, the source gives them in different places.

Experiments:
[1] = tested on: BV/shenzhen/155/2005; assay: CPE assay in MDCK cells; assay type: cell-based, influenza B virus; details: for IC50: Influenza B virus, CPE, MDCK cells; for SI: TC50/IC50
[2] = tested on: BY/fujianxinluo/54/2006; assay: CPE assay in MDCK cells; assay type: cell-based, influenza B virus; details: for IC50: Influenza B virus, CPE, MDCK cells; for SI: TC50/IC50
[3] = tested on: A/FortMonmouth/1/1947; assay: CPE assay in MDCK cells; assay type: cell-based, Influenza A virus (H1N1); details: for IC50: Influenza A virus, CPE, MDCK cells; for SI: TC50/IC50
[4] = tested on: A/wuhan/359/1995; assay: CPE assay in MDCK cells; assay type: cell-based, Influenza A virus (H3N2); details: for IC50: Influenza A virus, CPE, MDCK cells; for SI: TC50/IC50
[5] = in vivo; cited from earlier work
[6] = tested on: viral hemagglutinin; set-up: species or system Influenza A virus; details: maximum concentration 40 μM, 10-fold dilutions; Fig. 2b
Method: Briefly, the diluted IAV were mixed with diluted compounds in a U bottom 96-well plate. After incubation at 4 °C for 40 min, equal volume of 1.2% chicken erythrocyte suspension was added to each well. Then, the erythrocyte aggregation was evaluated by visual inspection after 40 min [17, 18].

[7] = In vivo toxicity, body weight in mice; set-up: species or system female Kun Ming mice; details: 100 mg/kg by oral administration in mice
Method: To determine the in vivo toxicity of N30 preliminarily, female Kun Ming mice were gavaged 100 mg/kg and 50 mg/kg N30 twice a day. Six mice enrolled in each group were gavaged with N30 or vehicle for continuous administration for 14 days, then weighted at day 0, 5, 10 and 14 respectively, shown in Table 5.

[8] = tested on: MDCK cells; details: dog, 48 h
[9] = tested on: CVB1 (strain Conn-5); assay: CPE assay; assay type: cell-based, Coxsackie virus B; details: for IC50: Enterovirus B, CVB1, CPE
[10] = tested on: NA of IAV A/FM1/1947; assay: NA inhibition assay (MUNANA); assay type: biochemical, Influenza A virus; details: Fig. 2a
[11] = tested on: CVB3 (strain Nancy); assay: CPE assay; assay type: cell-based, Coxsackie virus B; details: for IC50: Enterovirus B, CVB3, CPE
[12] = tested on: IAV A/Fort Monmouth/1/1947 (H1N1); assay: IAV M2 protein and RNA expression in MDCK cells (western blot, qRT-PCR); assay type: cell-based, Influenza A virus (H1N1); details: 0.01 MOI, 24 h post-infection, Fig. 1c and d
Method: Fig. 1 Effects of N30 on IAV M2 protein and RNA expression in MDCK. a Chemical structure of N30. b The effect of N30 on viabilities of MRC-5, Vero, MDCK and Hep2 cells, which were measured by CCK. c The effect of N30 with different concentrations on IAV M2 protein and RNA expression. d The effect of N30 on IAV M2 protein and RNA expression compared with reference drugs. MDCK cells were infected with IAV A/Fort Monmouth/1/1947(H1N1) (0.01 multiplicity of infection [MOI, plaque-forming units (PFU)/cell]) for 2 hours, and treated with different concentrations of N30 or reference drugs for 24 h. Total mRNA and protein were extracted at 24 h post-infection, and analyzed by qRT-PCR and Western blotting respectively. […]
Cells were collected at 24 h post-infection and lysed in M-PER mammalian protein extraction reagent containing halt protease inhibitor cocktail (Thermo Fisher Scientific), sample proteins were subjected to SDS-PAGE and transferred to PVDF membrane (Millipore). After blocked with 5% milk, the membranes were incubated with antibodies against Influenza M2, β-actin (Santa Cruz), CVB3 VP1 (Millipore), IMPDH type II (Sigma-Aldrich), RSV M2 (Santa Cruz) and coronavirus (FIPV-70, Santa Cruz) respectively, then, the HRP-conjugated secondary antibodies were incubated and the signals were detected using an enhanced chemiluminescence (ECL) kit (GE Healthcare Life Sciences). […]

[13] = tested on: CVB2 (strain Ohio-1); assay: CPE assay; assay type: cell-based, Coxsackie virus B; details: for IC50: Enterovirus B, CVB2, Ohio-1, CPE
[14] = tested on: EV71(BrCr); assay: CPE assay; assay type: cell-based, Human enterovirus 71; details: for IC50: Enterovirus A, EV71, CPE; for SI: TC50/IC50
[15] = tested on: Vero cells; details: African green monkey, 48 h
[16] = tested on: IAV; details: in vitro, at low micromolar concentrations; cited from earlier work
[17] = tested on: EV71(SZ98); assay: CPE assay; assay type: cell-based, Human enterovirus 71; details: for IC50: Enterovirus A, EV71, CPE; for SI: TC50/IC50
[18] = tested on: RSV; assay type: cell-based, respiratory syncytial virus (long strain)
[19] = tested on: CVB4 (strain J.V.B.); assay: CPE assay; assay type: cell-based, Coxsackie virus B; details: for IC50: Enterovirus B, CVB4, CPE
[20] = tested on: IMPDH type II; assay: IMPDH type II expression by western blot in MDCK cells; assay type: cell-based, canine; details: 24 h treatment, Fig. 3a
[21] = tested on: CVB5 (strain Faulkner); assay: CPE assay; assay type: cell-based, Coxsackie virus B; details: for IC50: Enterovirus B, CVB5, CPE
[22] = molecular target: T1, IMPDH type II (Homo sapiens, UniProt P12268); assay: Enzymatic assay of IMPDH type II; assay type: biochemical; details: after N30 treatment; Fig. 3b
T1 construct: purchased Sigma-Aldrich
Method: The enzymatic assay was employed to evaluate the inhibitory effect of N30 on the activity of IMPDH type II by following the increase in formation of nicotinamide-adenine dinucleotide (NADH), which absorbance was read at 340 nm on Enspire at 30 °C. The 200 μL assay buffer contained 1 M Tris/HCl (pH 8.8), 1 M KCl, 30 mM EDTA, 10 μL IMPDH type II (Sigma-Aldrich), 1 mM DTT and NAD (Sigma-Aldrich). The reaction was started after addition of IMP, with final concentrations was 1 mM [19].

[23] = tested on: CVB6 (strain Schmitt); assay: CPE assay; assay type: cell-based, Coxsackie virus B; details: for IC50: CPE
[24] = tested on: Vero cells; assay: Cytotoxicity test (CCK); details: 50% toxicity concentration
[25] = human, in vivo, cited from earlier work

Row | SMILES | IC50 [1] [µM] | IC50 [2] [µM] | IC50 [3] [µM] | IC50 [4] [µM] | hemagglutination inhibition (aggregation of chicken erythrocytes) [6] | TC50 [8] [µM] | IC50 [9] [µM] | SI [1] | effect on NA activity [10] | IC50 [11] [µM] | IC50 [13] [µM] | IC50 [14] [µM] | SI [14] | SI [2] | SI [3] | IC50 [17] [µM] | SI [17] | SI [4] | IC50 [19] [µM] | IMPDH expression [20] | also measured
1 | NC12CC3CC(CC(C3)C1)C2 [AH, amantadine hydrochloride] | > 200 | > 200 | 0.65 ± 0.59 | 15.6 ± 0.31 | – | – | – | – | – | – | – | – | – | – | – | – | – | – | – | – | –
2 | COc1c(C)c2c(c(O)c1C/C=C(\C)CCC(=O)OCCN1CCOCC1)C(=O)OC2 [MMF, mycophenolate mofetil] | – | – | – | – | – | – | – | – | – | – | – | – | – | – | – | – | – | – | – | – | side effects [5]: diarrhea, leucopenia, sepsis, and vomiting
3 | O=[N+]([O-])c1ccc(CNc2ccc3ncsc3c2)cc1 [N30, N-(4-nitrophenylmethyl) benzothiazole-6-amine] | 1.16 ± 0.69 | 0.7 ± 0.18 | 1.93 ± 0.16 | 1.31 ± 0.87 | could not inhibit the aggregation of chicken erythrocytes | 66.67 | 6.28 ± 1.61 | 57.47 | little inhibitory effect | 1.82 ± 2.76 | 11.7 ± 2.94 | 8.04 ± 3.77 | 11.14 | 95.24 | 34.54 | 10.6 ± 3.76 | 8.42 | 50.89 | 10.4 ± 3.13 | have not been lessened | acute toxicity [7]: little acute toxicity; SI ([9]; TC50/IC50): 14.26; SI ([11]; TC50/IC50): 49.21; amounts of IAV M2 protein and RNA [12]: dosage dependent relationship; SI ([13]; TC50/IC50): 7.69; TC50 [15]: 89.56 ± 4.25 µM; activity towards IAV [16]: potent activity; expression of the viral proteins ([18]; 10 μM N30, RSV-infected Hep2 cells): almost completely inhibit; RSV M2 mRNA and protein expressions ([18]; RSV-infected Hep2 cells, 0.025 MOI, 24 h, Fig. 4b): markedly decreased; SI ([19]; TC50/IC50): 8.64; IC50 [21]: 2.54 ± 1.43 µM; SI ([21]; TC50/IC50): 35.26; reduction of the enzymatic reaction rate of IMPDH [22]: 38.18%; SI [23]: 13.15; IC50 [23]: 6.81 ± 1.89 µM
4 | CCOC(=O)c1ccc(OCCC2CCN(c3ccc(C)nn3)CC2)cc1 [Pirodavir] | – | – | – | – | – | – | – | – | – | – | – | 0.16 | 203.56 | – | – | 0.27 ± 0.27 | 120.6 | – | – | – | TC50 ([24]; Tables 3 and 4, CCK, 48 h): 32.57 ± 0.55 µM
5 | NC(=O)c1ncn([C@@H]2O[C@H](CO)[C@@H](O)[C@H]2O)n1 [RBV, Ribavirin] | 1.7 ± 0.57 | 2.48 ± 0.53 | 1.64 ± 0.72 | 8.23 ± 6.31 | did not show the inhibitory effect | – | 2370 ± 360 | – | – | 3130 ± 1210 | 2270 ± 180 | – | – | – | – | – | – | – | 2470 ± 1600 | no inhibition | bilirubin values ([25]; po): elevated the bilirubin values; anemia [25]: transient anemia; TC50 ([24]; Table 3): >20000 µM; IC50 [21]: 1200 ± 530 µM; IC50 [23]: 4560 ± 2410 µM
6 | CCC(CC)O[C@@H]1C=C(C(=O)O)C[C@H](N)[C@H]1NC(C)=O [OC, oseltamivir carboxylate] | 1.02 ± 0.08 | 0.56 ± 0.02 | 0.25 ± 0.01 | 0.12 ± 0.01 | did not show the inhibitory effect | > 50 | – | >49.02 | significantly reduce the activity of NA in a dose dependent manner | – | – | – | – | >89.28 | >200 | – | – | >416.67 | – | – | –
